Patent publication US10786445B2 (BIOGEN CHESAPEAKE LLC, priority 2010, dated 2020)
“And” between values parts separate entries of the source, which are not always exact repeats. Identical values can stand only once. Like-named read-outs stand apart in the source and are kept apart here. Marks after values point to notes of the source that are not given here.

Columns and labels:
[1] = cited from earlier work
blood glucose = assay: Study 101 Phase 1: blood glucose / hypoglycemia; details: for Effect on median blood glucose levels: FIG. 5; for Time at which dosing was stopped early due to the hypoglycemic effect: planned 72 h infusion
Procedure: Blood glucose was measured throughout the study, both to obtain pharmacodynamic information as well as for safety reasons. The dosing regimen was a bolus over 2 minutes followed by a continuous infusion for 72 hours.

[2] = Pharmacokinetics of glyburide after intravenous administration (published studies); assay type: in vivo, human
Excerpt: All patents and publications discussed herein are hereby incorporated by reference in their entireties.

[3] = Study 101 Phase 1: serum ALT and AST; assay type: in vivo, human; details: subject receiving 6 mg/day, treated with 4,309 calories over 24 hours, two thirds carbohydrates
[4] = Study 101 Phase 1: plasma glyburide pharmacokinetics, bolus plus 72 h continuous infusion of RP-1127; assay type: in vivo, human
Procedure: All plasma concentration data were analyzed by nonlinear regression, simultaneously incorporating drug behavior during and after the infusion.

[5] = Preclinical experiments: filtering concentrated reconstituted glyburide, dilution into PVC-free bag; assay type: physicochemical
Procedure: In these experiments, the filtered material was diluted into a PVC-free bag (for example, the B Braun EXCEL L8000).
Patients in need of glyburide treatment include patients suffering from stroke, such as acute stroke (ischemic and hemorrhagic), traumatic brain injury (TBI), spinal cord injury (SCI), myocardial infarction (MI), shock (including hemorrhagic shock), organ ischemia, ventricular arrhythmias, ischemic injury; hypoxia/ischemia; and other injuries, conditions, and disorders.

[6] = In-use stability testing of glyburide solutions (PVC contact, in-line filter, flushing protocols); assay type: physicochemical
Excerpt: One possible explanation is that glyburide adsorbs to PVC.

[7] = Jonsson et al. 2000, healthy males and females, data from Caucasian patients, N 10, i.v. dose 2.0 mg
[8] = McEwen et al. 1982, healthy males, N 20, i.v. dose 1.48 mg
[9] = Morrison et al. 1982, healthy males and females, N 8, i.v. dose 2.4 mg
[10] = Neugebauer et al. 1985, NIDDM males and females, N 20, i.v. dose 1.25 mg
[11] = Rogers et al. 1982, healthy males and females, N 8, i.v. dose 1 mg
[12] = Sorgel et al. 1997, healthy males, N 24, i.v. dose 1.5 mg
[13] = both sexes, human, in vivo, iv, Morrison et al. 1982, healthy males and females, N 8, i.v. dose 2.4 mg
[14] = both sexes, human, in vivo, iv, Neugebauer et al. 1985, NIDDM males and females, N 20, i.v. dose 1.25 mg
[15] = both sexes, human, in vivo, iv, Rydberg et al. 1995, healthy males and females, N 8, i.v. dose 1.0 mg, normalized to 70 kg
[16] = male, human, in vivo, iv, McEwen et al. 1982, healthy males, N 20, i.v. dose 1.48 mg
[17] = 0.4 mg/day, limit of detection 0.5 ng/mL
[18] = Study 101, 0.4 and 3.0 mg/day (N = 26), nonlinear regression

In the case of `COc1ccc(Cl)cc1C(=O)NCCc1ccc(S(=O)(=O)NC(=O)NC2CCCCC2)cc1` [Glyburide, 5-chloro-N-(4-[N-(cyclohexylcarbamoyl)sulfamoyl]phenethyl)-2-methoxybenzamide], the “mean glyburide Cmax after administration of the bolus” value ([1]; Groop et al. 1987, bolus dose followed by continuous i.v. infusion) is listed as 240 ng/mL, the Cmax [1, 7] is listed as 196 ng/mL and the clearance [1, 7] is listed as 101.3 mL/min. The t1/2 [1, 7] was 1.15 h, the Beta [1, 8] was 0.3 h⁻¹ and the clearance [1, 8] was 49 mL/min. For the same compound, the t1/2 [1, 8] was 2.46 h, the Beta [1, 9] was 0.62 h⁻¹ and the Cmax [1, 9] was 648 ng/mL. The Vd [1, 9] was 7.4 L, the clearance [1, 9] was 73.7 mL/min and the Beta [1, 10] was 0.38 h⁻¹. The Cmax [1, 10] was 376 ng/mL, the clearance [1, 10] was 73.5 mL/min and the t1/2 [1, 10] was 1.82 h. The Beta [1, 11] was 0.517 h⁻¹, the t1/2 [1, 11] was 1.47 h and the t1/2 ([1]; Rydberg et al. 1995, healthy males and females, N 8, i.v. dose 1.0 mg) was 1.47 ± 0.42 h. For the same compound, the Cmax [1, 12] was 331 ± 65 ng/mL, the Tmax [1, 12] was 5.4 min and the Vd [1, 12] was 11.22 ± 3 L. The clearance [1, 12] was 74.7 ± 22 mL/min, the t1/2 [1, 12] was 4.22 ± 1 h and the t1/2 ([1]; Spraul et al. 1989, healthy males and females, N 52, i.v. dose 4.0 mg) was 1.50 ± 0.36 h. For the same compound, the “Maximum glyburide plasma concentrations” value ([1]; range over studies: Rogers et al. 1982, Groop et al. 1987, Bank et al. 2000, Jonsson et al. 2000) was 200 to 436 ng/mL, the “Effect on median blood glucose levels” value (blood glucose; 0.4 mg/day vs placebo) was “very minor but visible effect on BG” and the Symptoms of hypoglycemia (blood glucose; 433 μg bolus plus 10 mg/day, single subject) was “classic symptoms of hypoglycemia but was always alert, oriented and conversant”. The blood glucose levels (blood glucose; 433 μg bolus plus 10 mg/day, single subject, H12-H22) was 52 to 53 mg/dL, the BG (blood glucose; 433 μg bolus plus 10 mg/day, single subject, hour 2) was “below 70 mg/dL” and the morning serum glucose (blood glucose; 433 μg bolus plus 10 mg/day, single subject, hour 22) was “below 50 mg/dL”. The “Effect on median blood glucose levels” value (blood glucose; 3.0 mg/day vs placebo) was “more pronounced effect, without hypoglycemia”, the Hypoglycemia (blood glucose; 6 mg/day delivered as continuous infusion) was “severe hypoglycemia occurred” and the “Time at which dosing was stopped early due to the hypoglycemic effect” value (blood glucose; 6 mg/day) was “around 32 hours”. The blood glucose levels (blood glucose; 6 mg/day, single subject, H0 to H8) was “above 70 mg/dL”, the blood glucose (blood glucose; 6 mg/day, single subject, after IV dextrose (10%) 100 cc/hour from approximately H29) was 64 to 123 mg/dL and the Signs of hypoglycemia (blood glucose; 6 mg/day, single subject, approximately H13.3, lasted 15 minutes) was “signs of hypoglycemia in the form of sweating (diaphoresis) and hunger”. The BG (blood glucose; 6 mg/day, single subject, at H12) was 68 mg/dL, the Hypoglycemia (blood glucose; 10 mg/day delivered as continuous infusion) was “severe hypoglycemia occurred” and the “Time at which dosing was stopped early due to the hypoglycemic effect” value (blood glucose; 10 mg/day) was “around 24 hours”. The Beta ([2]; Rydberg et al. 1995, healthy males and females, N 8, i.v. dose 1.0 mg, normalized to 70 kg) was 0.52*‡ 1/h, the clearance [2, 13] was 73.7 mL/min and the half-life [2, 13] was 1.18 h. The Vd [2, 14] was 11.6 L, the clearance [2, 14] was 73.5 mL/min and the Vd [2, 15] was 10.9 L. It also gave a clearance [2, 15] of 91 mL/min, a clearance ([2]; both sexes, human, plasma, iv, Jonsson et al. 2000, healthy males and females, data from Caucasian patients, N 10, i.v. dose 2.0 mg) of 28 mL/min and a Vd [2, 16] of 9.7 L. The clearance [2, 16] was 48.7 mL/min, the “ALT and AST” value [3] was “transient elevations in ALT and AST” and the “mean steady state glyburide concentration (Css)” value ([4]; 17.3 μg bolus plus 0.4 mg/day, 72 h infusion) was 3.8 ng/mL. The “mean Css” value ([4]; 130 μg bolus plus 3 mg/day, 72 h infusion) was 25.3 ng/mL, the “Mean glyburide plasma level at treatment cessation” value ([4]; 0.4 mg/day) was 4.4 ng/mL and the “Reduction of mean glyburide plasma levels within one hour of treatment cessation” value ([4]; 0.4 mg/day) was 54%. For the same compound, the “Hour by which plasma levels were below the limits of detection in 50% of the patients” value [4, 17] was no more than 76 h, the “Hour by which plasma levels were below the limits of detection in 100% of patients” value [4, 17] was no more than 96 h and the “Hour by which plasma levels were below the limits of detection in 50% of the subjects” value ([4]; 3 mg/day) was no more than 84 h. For the same compound, the “Hour by which plasma levels were below the limits of detection in 100% of patients” value ([4]; 3 mg/day) was no more than 96 h, the “Mean glyburide plasma level at cessation of dosing” value ([4]; 3 mg/day) was 27.3 ng/mL and the “Reduction of mean glyburide plasma levels within 1 hour of cessation of dosing” value ([4]; 3 mg/day) was 57%. The “Dependence of pharmacokinetic parameters on covariates” value ([4]; Study 101) was “independent of dose, weight, height, body surface area, gender and age”, the clearance ([4]; Study 101, 0.4 and 3.0 mg/day (N = 26)) was 54 mL/min/m^2 and the T1/2α [4, 18] was 0.44 h. The T1/2β [4, 18] was 3.31 h, the “Time to steady state following bolus administration” value ([4]; Study 101, bolus plus continuous infusion) was 8 to 20 h and the “Time of minimum plasma glyburide concentration after commencement of dosing (median)” value ([4]; Study 101, drop following the initial bolus loading dose) was 1.25 to 1.5 h. It also gave a Cmax ([4]; both sexes, human, plasma, intravenous, 17.3 μg bolus plus 0.4 mg/day, 72 h infusion) of 7.2 ng/mL, a concentration at 1 h after treatment cessation ([4]; both sexes, human, plasma, intravenous, 0.4 mg/day) of 2 ng/mL and a concentration at 1 h after cessation of dosing ([4]; both sexes, human, plasma, intravenous, 3 mg/day) of 11.9 ng/mL. For the same compound, the clearance ([4]; both sexes, human, plasma, intravenous, Study 101, 0.4 and 3.0 mg/day (N = 26), read-out: Clearance) was 95 mL/min and 1.44 mL/min/kg, the Cmax ([4]; human, plasma, intravenous, 130 μg bolus plus 3 mg/day, 72 h infusion, one patient, read-out: Cmax (of all individual subjects)) was 50.7 ng/mL and the concentration at 2 h ([4]; human, plasma, intravenous, 433 μg bolus plus 10 mg/day, single subject, at hour 2 (BG below 70 mg/dL)) was 57.9 ng/mL. For the same compound, the concentration at 12 h ([4]; human, plasma, intravenous, 6 mg/day, single subject, at H12 (BG 68 mg/dL)) was 64 ng/mL, the “Effect of filtering on glyburide concentration” value ([5]; 0.2 micron filter, at least about 10 μg/mL, preferably about 0.5-1 mg/mL or greater) was “does not significantly decrease the glyburide concentration” and the “Loss of glyburide from glyburide solutions” value ([5]; filter 1 mg/mL concentrate, dilute into PVC-free bag, unfiltered polyethylene lined tubing) was “effective to reduce the loss of glyburide”. The “loss of glyburide in standard PVC bag” value ([6]; 10 μg/mL glyburide, PVC bag but not PVC tubing) was “acceptable amount of loss of glyburide”, the “glyburide concentration after passage through a filter” value ([6]; 0.2 micron in-line filter) was “reduced” and the “reduction in glyburide passing through the full chain of components” value ([6]; all components and flushing protocols) was “less than 10%”. For the same compound, the “glyburide concentration on storage in PVC bags” value ([6]; glyburide concentrations below 10 μg/mL) was “reduced” and the “glyburide concentration on contact with polyvinyl chloride (PVC)” value ([6]; solution passed through PVC tubing or stored in a PVC bag) was “reduced”.
